Results from US20040082558A1, “Administration of estradiol metabolites for inhibition of drug-induced nephrotoxicity” (priority 2002, published 2004).

Assays:
Assay type in all cases: in vivo, rat
[1] = tested on: proliferating cell nuclear antigen (PCNA); test: Glomerular immunohistochemical staining for PCNA, quantitative image analysis; details: 12 weeks of treatment, kidney sections
Protocol: (§1) Animals were killed by an overdose of anesthetic and kidneys were removed and weighed. One kidney was fixed in 10% formalin buffer and the second kidney was quick-frozen in liquid nitrogen and stored at −70° C. Kidney tissue samples were sectioned and processed into paraffin blocks for light microscopy. For labeling of collagen IV, renal cortical segments (5 μm) were incubated overnight at 4° C. with rabbit anti-mouse collagen IV antibody (dilution 1/500 ) obtained from Chemicon International Inc. (Temecula, Calif.). A primary monoclonal mouse antibody ( 1/200 dilution; Dako Corporation, Carpenteria, Calif.) was used to label proliferating cell nuclear antigen (PCNA). […] Nonspecific staining was assessed by replacing the primary antibody with phosphate buffered saline. […] Immunochemical staining for collagen IV and PCNA quantitatively was done with a SAMBA 4000 image analyzer (Image Products International, Chantilly, Va.) using specialized computer software (Immuno-Analysis, version 4.1, Microsoft, Richmond, Wash.), a color video camera and a Compaq computer. […] Ten high power fields (×400) were assessed for staining density or positively marked cells for ED-1. […] Staining intensity of positive areas was also assessed (mean optical density) and a mean quick score was then calculated (mean optical density×labeling index).

PAN-nephropathic rats [2] = test: Acute measurements of renal hemodynamics and excretory function at 12 weeks; details: 12 weeks of treatment
Protocol: (§2) After baseline metabolic parameters were measured, animals were randomly assigned to receive subcutaneous saline (3 ml/kg; Control group, n=9) or puromycin aminonucleoside (PAN) (75 mg/kg; drug-induced nephrotoxic animals, n=26). PAN is a drug widely used to produce drug-induced nephrotoxicity in laboratory animals. Grond, J., et al., Contributions to Nephrology 60:83 (1988), the disclosure of which is incorporated herein by reference. Injections of PAN (20 mg/kg) were repeated after 2, 4, 8 and 10 weeks of treatment. Three hours after the initial injections, control animals were implanted with osmotic minipumps (model 2ML4, Alza, Palo Alto, Calif.) containing vehicle (polyethylene glycol 400, 2.5 μl/hour), whereas PAN-treated animals were implanted with osmotic minipumps containing either vehicle (PAN group, n=13) or 2-hydroxyestradiol (10 μg/kg/hour, PAN+2OHE group, n=13). Assignment to the PAN and PAN+2OHE groups was random. Six animals in the PAN group and 2 animals in the PAN+2OHE group died during the treatment, and these animals were not used in the final data analysis.
At 12 weeks into treatment, animals were anesthetized with pentobarbital (45 mg/kg i.p.) and instrumented for measurements of renal hemodynamics and excretory function. Two polyethylene (PE)-50 catheters were inserted into left jugular vein for delivery of supplemental anesthetics and saline infusion (50 μl/min), respectively. Another PE-50 catheter was inserted into left carotid artery and connected to a blood-pressure analyzer (Micro-Med., Inc., Louisville, Ky.) for continuous measurement of blood pressure and heart rate. A PE-10 catheter was inserted into the left ureter to facilitate collection of urine, and a flow probe (Model 1RB; Transonic Systems, Inc., Ithaca, N.Y.) was placed on the left renal artery for determination of renal blood flow, which was used to calculate renal vascular resistance. Next, an infusion of ^14C-inulin (0.035 μCi/20 μl saline/min) was initiated and after 60 minutes, two 30-minute clearance periods were conducted. A mid-point blood sample (300 μl) was collected and plasma and urine ^14C-inulin radioactivity was measured. Renal clearance of ^14C-inulin was calculated as an estimate of glomerular filtration rate.

collagen IV = test: Glomerular immunohistochemical staining for collagen IV, quantitative image analysis; details: 12 weeks of treatment, kidney sections
Protocol: as §1

PAN-treated rats = test: Mortality during 12-week treatment of PAN-treated rats; details: n=13 per group
Protocol: as §2

ED1 positive cells = test: Immunohistochemical staining for ED1 positive cells (macrophage infiltration) in glomeruli and interstitium; details: 12 weeks of treatment, kidney sections
Protocol: as §1

PAN-nephropathic rats [3] = test: Plasma testosterone radioimmunoassay; details: 12 weeks of treatment, male rats
Protocol: An aliquot of mid-point blood sample drawn during the first clearance period was used for testosterone measurements. Plasma testosterone levels were determined by radioimmunoassay using a commercial kit provided by ICN Biomedicals, Inc. (Costa Mesa, Calif.) according to the protocol of the manufacturer.

PAN-nephropathic rats [4] = test: Metabolic cage measurements (24-hour urine, intake, plasma) in PAN-nephropathic rats
Protocol: A total of thirty-five, male Sprague Dawley rats (approximately 290 grams) were used. Rats were housed in the University of Pittsburgh Medical Center animal care facility (temperature, 22° C.; light cycle, 12 hours; relative humidity, 55%). Animals were fed Pro Lab RMH 3000 rodent diet (PMI Nutrition Inc., St Louis, Mo.) and were given water ad libitum. Institutional guidelines for animal welfare were followed, and the University of Pittsburgh Institutional Animal Care and Use Committee approved experimental protocols.
Before initiating treatment, and 3, and 6 and 11 weeks into the treatments, animals were placed in metabolic cages and allowed to acclimatize for two days before conducting the 24-hour measurements of urine volume, food and water intake and urinary sodium, potassium, creatinine, and protein excretion. Tail vein blood samples were also taken for measurement of plasma sodium, potassium, albumin and creatinine. Plasma and urine samples were analyzed for sodium and potassium concentrations using a flame photometer (Model IL-943; Instrumentations Laboratory Inc., Lexington, Ma.) and for creatinine concentrations using a creatinine analyzer (Creatinine Analyzer 2, Beckman Instrument, Inc., Fullerton Calif., USA). Total urine proteins were measured by a spectrophotometric assay using bicinchoninic acid reagent (Pierce; Rockford, Ill.) and a modification of Lowry method. Lowry, O. H., et al., J. Biol. Chem. 193: 265 (1951), the disclosure of which is incorporated herein by reference.
as §2

CN(C)c1ncnc2c1ncn2[C@@H]1O[C@H](CO)[C@@H](N)[C@H]1O [PAN, puromycin aminonucleoside]
Labeling index of glomerular immunoreactive PCNA (in words, FIG. 3) [1]: markedly expanded
Blood pressure (in words) (PAN-nephropathic rats [2]): increased blood pressure
GFR, inulin clearance (in words) (PAN-nephropathic rats [2]): decreased renal blood flow, renal plasma flow, hematocrit and glomerular filtration rate
Hematocrit (PAN-nephropathic rats [2]): 27 ± 2%
Left Kidney (PAN-nephropathic rats [2]): 2.10 ± 0.13 g
Glomerular Filtration Rate (PAN-nephropathic rats [2]; 14C-inulin clearance): 0.21 ± 0.07 ml/min/g kidney
Body Weight (PAN-nephropathic rats [2]; acute experiment): 368 ± 15
Mean Blood Pressure (PAN-nephropathic rats [2]; anesthetized): 153.0 ± 6.1 mm Hg
Renal Blood Flow (PAN-nephropathic rats [2]; anesthetized): 2.73 ± 0.24 ml/min/g kidney
Renal Plasma Flow (PAN-nephropathic rats [2]; anesthetized): 2.00 ± 0.19 ml/min/g kidney
Renal Vascular Resistance (PAN-nephropathic rats [2]; anesthetized): 63.6 ± 7.6 mm Hg/ml/min/g kid
Urine Volume (PAN-nephropathic rats [2]; anesthetized): 4.43 ± 0.85 μl/min/g kidney
Glomerular collagen IV, labeling index (in words, FIGS. 5 and 6) (collagen IV): significant increase in glomerular collagen IV content
Animals died during the treatment (PAN-treated rats): Six
Number of ED1 positive cells in glomeruli and interstitium (in words, FIG. 4) (ED1 positive cells): several-fold increase in the number of ED1 positive cells
Plasma testosterone levels (PAN-nephropathic rats [3]): 0.92 ± 0.27 ng/mL
Body Weight (PAN-nephropathic rats [4]; 0 wks of treatment (baseline)): 293 ± 4 g
Creatinine Excretion (PAN-nephropathic rats [4]; 0 wks of treatment (baseline)): 14.9 ± 2.5 mg/day
FE - K+ (fractional excretion of potassium) (PAN-nephropathic rats [4]; 0 wks of treatment (baseline)): 10.5 ± 0.7%
FE - Na+ (fractional excretion of sodium) (PAN-nephropathic rats [4]; 0 wks of treatment (baseline)): 0.13 ± 0.01%
Fluid Intake (PAN-nephropathic rats [4]; 0 wks of treatment (baseline)): 5.33 ± 0.37 mL/h/kg
Food Intake (PAN-nephropathic rats [4]; 0 wks of treatment (baseline)): 75 ± 2 g/kg/day
Plasma Cholesterol (PAN-nephropathic rats [4]; 0 wks of treatment (baseline)): 53.6 ± 2.3 mg/dL
Potassium Excretion (PAN-nephropathic rats [4]; 0 wks of treatment (baseline)): 10.9 ± 0.72 mEq/day/kg
Sodium Excretion (PAN-nephropathic rats [4]; 0 wks of treatment (baseline)): 4.48 ± 0.95 mEq/day/kg
Urine Volume (PAN-nephropathic rats [4]; 0 wks of treatment (baseline)): 1.78 ± 0.275 mL/h/kg
Body Weight (PAN-nephropathic rats [4]; 3 wks of treatment): 313 ± 1 g
Creatinine Excretion (PAN-nephropathic rats [4]; 3 wks of treatment): 11.1 ± 1.1 mg/day
FE - K+ (fractional excretion of potassium) (PAN-nephropathic rats [4]; 3 wks of treatment): 27.3 ± 3.7 %
FE - Na+ (fractional excretion of sodium) (PAN-nephropathic rats [4]; 3 wks of treatment): 0.37 ± 0.06%
Fluid Intake (PAN-nephropathic rats [4]; 3 wks of treatment): 7.58 ± 0.667 mL/h/kg
Food Intake (PAN-nephropathic rats [4]; 3 wks of treatment): 74 ± 4 g/kg/day
Plasma Cholesterol (PAN-nephropathic rats [4]; 3 wks of treatment): 353 ± 39.4 mg/dL
Potassium Excretion (PAN-nephropathic rats [4]; 3 wks of treatment): 10.7 ± 0.82 mEq/day/kg
Sodium Excretion (PAN-nephropathic rats [4]; 3 wks of treatment): 3.80 ± 0.58 mEq/day/kg
Urine Volume (PAN-nephropathic rats [4]; 3 wks of treatment): 4.192 ± 0.462 mL/h/kg
Body Weight (PAN-nephropathic rats [4]; 6 wks of treatment): 337 ± 15 g
Creatinine Excretion (PAN-nephropathic rats [4]; 6 wks of treatment): 8.8 ± 0.9 mg/day
FE - K+ (fractional excretion of potassium) (PAN-nephropathic rats [4]; 6 wks of treatment): 30.1 ± 4.6 %
FE - Na+ (fractional excretion of sodium) (PAN-nephropathic rats [4]; 6 wks of treatment): 0.71 ± 0.13 %
Fluid Intake (PAN-nephropathic rats [4]; 6 wks of treatment): 6.92 ± 0.542 mL/h/kg
Food Intake (PAN-nephropathic rats [4]; 6 wks of treatment): 69 ± 3 g/kg/day
Plasma Cholesterol (PAN-nephropathic rats [4]; 6 wks of treatment): 283.5 ± 39.5 mg/dL
Potassium Excretion (PAN-nephropathic rats [4]; 6 wks of treatment): 8.39 ± 0.61 mEq/day/kg
Sodium Excretion (PAN-nephropathic rats [4]; 6 wks of treatment): 3.92 ± 0.38 mEq/day/kg
Urine Volume (PAN-nephropathic rats [4]; 6 wks of treatment): 3.9 ± 0.512 mL/h/kg
Body Weight (PAN-nephropathic rats [4]; 11 wks of treatment): 382 ± 27 g
Creatinine Excretion (PAN-nephropathic rats [4]; 11 wks of treatment): 18.7 ± 3.0 mg/day
FE - K+ (fractional excretion of potassium) (PAN-nephropathic rats [4]; 11 wks of treatment): 47.1 ± 7.7 %
FE - Na+ (fractional excretion of sodium) (PAN-nephropathic rats [4]; 11 wks of treatment): 1.18 ± 0.35 %
Fluid Intake (PAN-nephropathic rats [4]; 11 wks of treatment): 6.62 ± 0.708 mL/h/kg
Food Intake (PAN-nephropathic rats [4]; 11 wks of treatment): 53 ± 5 g/kg/day
Plasma Cholesterol (PAN-nephropathic rats [4]; 11 wks of treatment): 349.6 ± 43.0 mg/dL
Potassium Excretion (PAN-nephropathic rats [4]; 11 wks of treatment): 9.63 ± 1.60 mEq/day/kg
Sodium Excretion (PAN-nephropathic rats [4]; 11 wks of treatment): 4.18 ± 0.58 mEq/day/kg
Urine Volume (PAN-nephropathic rats [4]; 11 wks of treatment): 4.712 ± 0.692 mL/h/kg
Creatinine clearance (in words, FIGS. 1B and 1C) (PAN-nephropathic rats [4]; chronic treatment): reduced creatinine clearance
Plasma creatinine levels (in words, FIG. 1A) (PAN-nephropathic rats [4]; chronic treatment): increased plasma creatinine levels
Urinary protein excretion (UPE; in words, FIG. 2A) (PAN-nephropathic rats [4]; chronic treatment): induced severe proteinuria
